Where two headings read alike, the source gives them in different places.
How the values were obtained:
Plasma pharmacokinetics = assay type: in vivo, human; conditions: for AUC / Cmax / Tmax: human, plasma, oral; for AUC: AUCtau [mean ± standard deviation]; for Cmax: Cmax [mean ± standard deviation]; for Tmax: Tmax [median (range)]
patients = conditions: cited from earlier work; for incidence of hyperglycemia: single agent
[1] = 300 mg alpelisib at steady state, triple combination
[2] = 200 mg encorafenib at steady state, dual combination
[3] = 200 mg encorafenib in the presence of 300 mg alpelisib, steady state, triple combination

Row | AUC (Plasma pharmacokinetics; [1]) [ng·h/mL] | Cmax (Plasma pharmacokinetics; [1]) [ng/mL] | exposure affected by encorafenib and cetuximab (Plasma pharmacokinetics; triple-combination therapy group) | Structure (SMILES) | incidence of hyperglycemia (patients; all grade, patients with solid tumors) [%] | incidence of hyperglycemia (patients; grade 3/4, patients with solid tumors) [%] | exposure vs dual-combination therapy group (Plasma pharmacokinetics; 200 mg encorafenib in the presence of 100 mg alpelisib) | drug–drug interaction between encorafenib and cetuximab (Plasma pharmacokinetics; dual-combination therapy group) | AUC (Plasma pharmacokinetics; [2]) [ng·h/mL] | AUC (Plasma pharmacokinetics; [3]) [ng·h/mL] | Cmax (Plasma pharmacokinetics; [2]) [ng/mL] | Cmax (Plasma pharmacokinetics; [3]) [ng/mL] | Tmax (Plasma pharmacokinetics; [2]) [h] | Tmax (Plasma pharmacokinetics; [3]) [h] | single agent MTD/RP2D (patients; first-in-human study) [mg]
1 | 25100 | 2740 ± 520 | not affected | Cc1nc(NC(=O)N2CCC[C@H]2C(N)=O)sc1-c1ccnc(C(C)(C)C(F)(F)F)c1 [alpelisib] | 47 | 24 | – | – | – | – | – | – | – | – | –
2 | – | – | – | COC(=O)N[C@@H](C)CNc1nccc(-c2cn(C(C)C)nc2-c2cc(Cl)cc(NS(C)(=O)=O)c2F)n1 [encorafenib] | – | – | similar | No evidence of drug–drug interaction | 7170 ± 2890 | 12900 | 1430 ± 824 | 2390 ± 2080 | 2 | 3 | 450
